From article PMC5681660, “Reduced hepatitis B and D viral entry using clinically applied drugs as novel inhibitors of the bile acid transporter NTCP” (Scientific Reports, 2017)
Counter-ions that a name gives are not always drawn.

Molecular target: T1, human NTCP (Homo sapiens, UniProt Q14973)
T1 sequence (Q14973 1-349): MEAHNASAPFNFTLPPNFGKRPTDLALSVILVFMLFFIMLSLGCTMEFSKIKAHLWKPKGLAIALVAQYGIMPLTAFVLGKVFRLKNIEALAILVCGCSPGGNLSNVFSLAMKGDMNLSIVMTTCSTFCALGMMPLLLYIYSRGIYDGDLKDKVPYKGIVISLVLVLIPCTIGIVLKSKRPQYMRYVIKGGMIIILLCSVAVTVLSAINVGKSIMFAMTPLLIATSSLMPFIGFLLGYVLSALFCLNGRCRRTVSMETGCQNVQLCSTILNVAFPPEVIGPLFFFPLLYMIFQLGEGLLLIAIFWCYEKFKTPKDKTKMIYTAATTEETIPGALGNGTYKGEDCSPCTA
Assay: Screening taurocholate uptake assay (96-well, [14C]taurocholate, 10 µM drug)
Settings: for B-score functional assay: screening taurocholate uptake, 10 µM drug

[1] = combined ranking of functional and binding screening assays
[2] = ranking over the functional and the binding screening assay

Row | SMILES | Ranking score [1] | B-score functional assay | Ranking score [2]
1 | CC(Oc1c(Cl)cccc1Cl)C1=NCCN1 (stereo not shown) [Lofexidine] | 633.467 | -0.33 | 
2 | N[C@@H](C(=O)N[C@@H]1C(=O)N2C(C(=O)O)=C(Cl)CC[C@H]12)c1ccccc1 [Loracarbef] | 611.882 | -0.686 | 
3 | CCOC(=O)N1CCC(=C2c3ccc(Cl)cc3CCc3cccnc32)CC1 [Loratadine] |  | -3.222 | 78.3326
4 | CCCCCN(CCCCC)C(=O)C(CCC(=O)[O-])NC(=O)c1ccc(Cl)c(Cl)c1.[Na+] (stereo not shown) [Lorglumide sodium salt] |  | -3.59 | 164.012
5 | CCOC(=O)O[C@]1(C(=O)OCCl)CC[C@H]2[C@@H]3CCC4=CC(=O)C=C[C@]4(C)[C@H]3[C@@H](O)C[C@@]21C [Loteprednol etabonate] |  | -2.765 | 211.225
6 | CC[C@H](C)C(=O)O[C@H]1C[C@@H](C)C=C2C=C[C@H](C)[C@H](CC[C@@H]3C[C@@H](O)CC(=O)O3)[C@H]21 [Lovastatin] |  | -0.084 | 175.818
7 | O=c1cc(-c2ccc(O)c(O)c2)oc2cc(O)cc(O)c12 [Luteolin] | 585.624 | -0.024 | 
8 | CN(C)[C@@H]1C(O)=C(C(=O)NCNCCCC[C@H](N)C(=O)O)C(=O)[C@@]2(O)C(O)=C3C(=O)c4c(O)cccc4[C@@](C)(O)[C@H]3C[C@@H]12 [Lymecycline] | 591.633 | 0.716 | 
9 | CCN(CCCCOC(=O)c1ccc(OC)c(OC)c1)C(C)Cc1ccc(OC)cc1 (stereo not shown) [Mebeverine hydrochloride] | 474.181 | -0.512 | 
10 | C=C1c2c(Cl)ccc(O)c2C(=O)C2=C(O)[C@]3(O)C(=O)C(C(N)=O)=C(O)[C@@H](N(C)C)[C@@H]3[C@@H](O)[C@H]12.O=C(O)c1cc(S(=O)(=O)O)ccc1O [Meclocycline sulfosalicylate] | 647.296 | 0.486 | 
11 | Cc1cccc(CN2CCN(C(c3ccccc3)c3ccc(Cl)cc3)CC2)c1.Cl.Cl (stereo not shown) [Meclozine dihydrochloride] | 482.469 | -1.455 | 
12 | Cc1cccc(Nc2ccccc2C(=O)O)c1C [Mefenamic acid] |  | -1.919 | 180.289
13 | CNC[C@H](O)[C@@H](O)[C@H](O)[C@H](O)CO [Meglumine] |  | -3.271 | 72.6498
14 | C[N+]1(C)CCCC(OC(=O)C(O)(c2ccccc2)c2ccccc2)C1 (stereo not shown) [Mepenzolate bromide] | 545.72 | 1.196 | 
15 | Cc1cccc(C)c1NC(=O)C1CCCCN1C (stereo not shown) [Mepivacaine hydrochloride] |  | -0.918 | 206.427
16 | CCC1(c2cccc(O)c2)CCCCN(C)C1 (stereo not shown) [Meptazinol hydrochloride] | 474.66 | -1.3 | 
17 | O=C([O-])c1ccccc1-c1c2cc(Br)c(=O)cc-2oc2[c]([Hg+])c([O-])c(Br)cc12.[Na+].[Na+].[OH-] [Merbromin] |  | -0.374 | 82.365
18 | O=S(=O)(O)CCS [Mesna] |  | -1.329 | 127.75
19 | C[C@H](N)[C@H](O)c1cccc(O)c1 [Metaraminol bitartrate] |  | 0.952 | 141.58
20 | CN1C[C@H](CNC(=O)OCc2ccccc2)C[C@@H]2c3cccc4c3c(cn4C)C[C@H]21 [Metergoline] |  | -0.571 | 269.388
21 | CC(=O)OC(C)C[N+](C)(C)C (stereo not shown) [Methacholine chloride] | 628.097 | 0.496 | 
22 | C=C1c2cccc(O)c2C(=O)C2=C(O)[C@]3(O)C(=O)C(C(N)=O)=C(O)[C@@H](N(C)C)[C@@H]3[C@@H](O)[C@H]12 [Methacycline hydrochloride] |  | 0.118 | 244.434
23 | CC[N+](C)(CC)CCOC(=O)C1c2ccccc2Oc2ccccc21 [Methantheline bromide] | 536.517 | -0.025 | 
24 | COC(=O)Nc1nc2ccc(SC(C)C)cc2[nH]1 [Methiazole] |  | -0.825 | 275.739
25 | COc1ccccc1OCC(O)COC(N)=O (stereo not shown) [Methocarbamol] | 504.159 | -0.493 | 
26 | COc1ccc(OC)c(C(O)C(C)N)c1 (stereo not shown) [Methoxamine hydrochloride] | 647.236 | -0.662 | 
